In the NIST ThermoML archive (doi:10.1016/j.jct.2007.05.016):
“And” between values parts separate entries of the source, which are not always exact repeats. Equal values may be shown once. Numbers after ± are expanded uncertainties.

Columns and labels:
[1] = xn = mol fraction of the nth substance listed; conditions: 101 kPa, Liquid, x1 = 1; for speed of sound: Sing-around technique in a fixed-path interferometer
[2] = 101 kPa, Liquid; for speed of sound: Sing-around technique in a fixed-path interferometer

Compound	speed of sound ([1]; 298.15 K) [m/s]	mass density ([1]; 298.15 K) [kg/m3]	viscosity ([1]; 298.15 K) [mPa·s]	speed of sound ([1]; 303.15 K) [m/s]	mass density ([1]; 303.15 K) [kg/m3]	speed of sound ([1]; 308.15 K) [m/s]	mass density ([1]; 308.15 K) [kg/m3]	mass density ([2]; 298.15 K) [kg/m3]	viscosity ([2]; 298.15 K) [mPa·s]	speed of sound ([2]; 298.15 K)	mass density ([2]; 303.15 K) [kg/m3]	speed of sound ([2]; 303.15 K) [m/s]	mass density ([2]; 308.15 K) [kg/m3]	speed of sound ([2]; 308.15 K) [m/s]
CCCCO [butan-1-ol] + CCCCCCCC	1240.4 ± 1.2	805.907 ± 0.77	2.573 ± 0.032	1226.5 ± 1.2	803.155 ± 0.78	1209.8 ± 1.2	799.249 ± 0.78							
CCCCCC [hexane]								655.072 ± 1.1	0.313 ± 0.008	1077.8 ± 1.2 m/s	650.369 ± 1.1	1055.2 ± 1.1	645.767 ± 1.1	1032.9 ± 1.1
CCCCCCCCCC [decane]								726.806 ± 0.93	0.852 ± 0.012	1234.8 ± 1.2 m/s	723.042 ± 0.94	1215.2 ± 1.2	719.23 ± 0.95	1195.6 ± 1.2
CCCCO [butan-1-ol] + CCCCCC	1240.5 ± 1.2	805.907 ± 0.77	2.573 ± 0.032	1226.5 ± 1.2	803.155 ± 0.78	1209.8 ± 1.2	799.249 ± 0.78							
CCCCCCCC [octane]								698.58 ± 0.99	0.518 ± 0.009	1172.7 ± 1.2 m/s	694.497 ± 1	1152.1 ± 1.2	690.416 ± 1	1131.7 ± 1.2
CCCCO [butan-1-ol]								805.907 ± 0.77	2.573 ± 0.032	1240.5 ± 1.2 m/s and 1240.4 ± 1.2 m/s	803.155 ± 0.78	1226.5 ± 1.2	799.249 ± 0.78	1209.8 ± 1.2
CCCCO [butan-1-ol] + CCCCCCCCCC	1240.5 ± 1.2	805.907 ± 0.77	2.573 ± 0.032	1226.5 ± 1.2	803.155 ± 0.78	1209.8 ± 1.2	799.249 ± 0.78							
